In ChEMBL document CHEMBL5291721, “A preclinical secondary pharmacology resource illuminates target-adverse drug reaction associations of marketed drugs” (Nat Commun, 2023):

Columns and labels:
Histamine H3 receptor = Histamine H3 receptor (Homo sapiens, UniProt Q9Y5N1)
[1] = molecular target: Glutamate receptor ionotropic, NMDA 1 (Rattus norvegicus, UniProt P35439)
[2] = molecular target: T1, 5-hydroxytryptamine receptor 1A (Homo sapiens, UniProt P08908); assay type: functional, cell-based
T1 sequence (P08908 whole entry): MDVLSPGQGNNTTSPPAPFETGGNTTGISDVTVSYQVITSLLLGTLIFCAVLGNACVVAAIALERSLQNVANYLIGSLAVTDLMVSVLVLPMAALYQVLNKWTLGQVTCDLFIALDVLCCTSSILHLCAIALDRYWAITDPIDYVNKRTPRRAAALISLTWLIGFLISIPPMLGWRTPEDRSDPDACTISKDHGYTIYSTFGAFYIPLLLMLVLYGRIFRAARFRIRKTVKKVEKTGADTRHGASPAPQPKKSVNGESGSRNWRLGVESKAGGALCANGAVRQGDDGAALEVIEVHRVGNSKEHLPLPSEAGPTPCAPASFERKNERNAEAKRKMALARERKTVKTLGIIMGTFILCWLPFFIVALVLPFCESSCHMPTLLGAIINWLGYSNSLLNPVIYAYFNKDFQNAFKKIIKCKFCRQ

[3] = molecular target: 3',5'-cyclic-AMP phosphodiesterase 4D (Homo sapiens, UniProt Q08499); assay type: functional
3',5'-cyclic-AMP phosphodiesterase 4D, sequence (Q08499 whole entry): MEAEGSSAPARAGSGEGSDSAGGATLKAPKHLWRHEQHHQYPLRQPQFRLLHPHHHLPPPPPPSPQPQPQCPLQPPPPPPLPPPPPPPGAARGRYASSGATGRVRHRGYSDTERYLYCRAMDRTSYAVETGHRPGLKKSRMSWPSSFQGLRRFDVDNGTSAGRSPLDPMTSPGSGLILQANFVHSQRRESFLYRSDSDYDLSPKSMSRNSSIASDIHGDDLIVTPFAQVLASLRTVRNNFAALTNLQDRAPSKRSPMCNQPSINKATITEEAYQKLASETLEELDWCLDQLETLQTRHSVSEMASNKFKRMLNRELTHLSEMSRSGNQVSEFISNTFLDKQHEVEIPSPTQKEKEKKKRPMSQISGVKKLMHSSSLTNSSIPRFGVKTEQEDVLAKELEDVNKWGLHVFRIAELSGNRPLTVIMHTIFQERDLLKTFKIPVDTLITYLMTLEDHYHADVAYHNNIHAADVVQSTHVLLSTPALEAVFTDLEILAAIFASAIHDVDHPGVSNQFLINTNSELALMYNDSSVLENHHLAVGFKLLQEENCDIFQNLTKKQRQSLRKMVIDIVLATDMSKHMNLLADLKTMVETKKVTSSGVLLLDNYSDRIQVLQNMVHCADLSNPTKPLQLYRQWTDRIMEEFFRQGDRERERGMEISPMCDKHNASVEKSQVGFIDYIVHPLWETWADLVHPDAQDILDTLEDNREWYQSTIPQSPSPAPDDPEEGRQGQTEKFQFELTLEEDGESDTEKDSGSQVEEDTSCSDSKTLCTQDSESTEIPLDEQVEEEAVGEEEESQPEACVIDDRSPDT

Histamine H1 receptor = Histamine H1 receptor (Homo sapiens, UniProt P35367)
Histamine H1 receptor, sequence (P35367 whole entry): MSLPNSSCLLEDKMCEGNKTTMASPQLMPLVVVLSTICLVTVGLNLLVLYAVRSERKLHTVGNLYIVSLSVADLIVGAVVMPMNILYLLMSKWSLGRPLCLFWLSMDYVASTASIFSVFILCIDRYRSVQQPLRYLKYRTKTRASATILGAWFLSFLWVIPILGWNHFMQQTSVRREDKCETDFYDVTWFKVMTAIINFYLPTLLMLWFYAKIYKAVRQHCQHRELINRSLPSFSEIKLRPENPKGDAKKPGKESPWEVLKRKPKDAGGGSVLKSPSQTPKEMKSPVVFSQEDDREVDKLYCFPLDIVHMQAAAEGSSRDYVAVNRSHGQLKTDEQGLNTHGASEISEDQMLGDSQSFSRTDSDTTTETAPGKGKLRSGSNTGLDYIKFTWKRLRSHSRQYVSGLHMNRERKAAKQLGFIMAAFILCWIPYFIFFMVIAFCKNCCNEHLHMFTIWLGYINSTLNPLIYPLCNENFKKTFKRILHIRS

Adenosine receptor A2a = Adenosine receptor A2a (Homo sapiens, UniProt P29274)
Adenosine receptor A2a, sequence (P29274 whole entry): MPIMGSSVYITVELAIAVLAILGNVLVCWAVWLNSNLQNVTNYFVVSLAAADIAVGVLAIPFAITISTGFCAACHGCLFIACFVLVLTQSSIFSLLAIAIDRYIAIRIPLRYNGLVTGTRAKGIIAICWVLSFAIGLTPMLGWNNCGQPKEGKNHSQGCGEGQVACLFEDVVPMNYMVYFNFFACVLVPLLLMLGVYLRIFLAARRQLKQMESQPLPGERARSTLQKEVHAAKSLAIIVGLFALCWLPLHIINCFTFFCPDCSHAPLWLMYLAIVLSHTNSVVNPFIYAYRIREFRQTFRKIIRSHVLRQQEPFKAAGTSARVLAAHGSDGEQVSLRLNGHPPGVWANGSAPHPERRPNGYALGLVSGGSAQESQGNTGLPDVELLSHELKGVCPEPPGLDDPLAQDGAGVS

[4] = molecular target: T2, Alpha-2B adrenergic receptor (Homo sapiens, UniProt P18089)
T2 sequence (P18089 whole entry): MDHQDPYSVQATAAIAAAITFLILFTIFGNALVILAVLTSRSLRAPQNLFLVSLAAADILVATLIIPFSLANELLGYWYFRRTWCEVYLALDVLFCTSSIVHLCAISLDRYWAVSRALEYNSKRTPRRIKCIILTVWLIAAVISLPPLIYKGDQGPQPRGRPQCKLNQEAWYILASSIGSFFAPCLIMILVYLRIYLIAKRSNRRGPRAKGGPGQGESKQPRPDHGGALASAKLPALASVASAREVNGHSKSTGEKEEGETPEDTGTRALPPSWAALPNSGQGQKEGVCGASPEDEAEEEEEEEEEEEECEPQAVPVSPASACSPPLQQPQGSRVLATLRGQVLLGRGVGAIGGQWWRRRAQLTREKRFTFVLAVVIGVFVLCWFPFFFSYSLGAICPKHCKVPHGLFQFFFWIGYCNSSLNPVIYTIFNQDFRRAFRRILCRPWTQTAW

Melanocortin receptor 3 = Melanocortin receptor 3 (Homo sapiens, UniProt P41968)
Melanocortin receptor 3, sequence (P41968 whole entry): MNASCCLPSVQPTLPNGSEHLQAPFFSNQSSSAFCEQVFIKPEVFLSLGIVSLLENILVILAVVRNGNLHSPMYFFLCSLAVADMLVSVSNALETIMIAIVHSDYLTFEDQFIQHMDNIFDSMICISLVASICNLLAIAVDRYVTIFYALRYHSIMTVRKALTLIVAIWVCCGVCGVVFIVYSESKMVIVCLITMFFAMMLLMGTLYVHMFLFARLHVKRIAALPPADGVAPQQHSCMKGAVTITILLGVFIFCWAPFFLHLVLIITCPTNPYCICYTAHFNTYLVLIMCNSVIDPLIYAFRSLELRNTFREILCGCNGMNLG

Estrogen receptor = molecular target: T3, Estrogen receptor (Homo sapiens, UniProt P03372)
T3 sequence (P03372 whole entry): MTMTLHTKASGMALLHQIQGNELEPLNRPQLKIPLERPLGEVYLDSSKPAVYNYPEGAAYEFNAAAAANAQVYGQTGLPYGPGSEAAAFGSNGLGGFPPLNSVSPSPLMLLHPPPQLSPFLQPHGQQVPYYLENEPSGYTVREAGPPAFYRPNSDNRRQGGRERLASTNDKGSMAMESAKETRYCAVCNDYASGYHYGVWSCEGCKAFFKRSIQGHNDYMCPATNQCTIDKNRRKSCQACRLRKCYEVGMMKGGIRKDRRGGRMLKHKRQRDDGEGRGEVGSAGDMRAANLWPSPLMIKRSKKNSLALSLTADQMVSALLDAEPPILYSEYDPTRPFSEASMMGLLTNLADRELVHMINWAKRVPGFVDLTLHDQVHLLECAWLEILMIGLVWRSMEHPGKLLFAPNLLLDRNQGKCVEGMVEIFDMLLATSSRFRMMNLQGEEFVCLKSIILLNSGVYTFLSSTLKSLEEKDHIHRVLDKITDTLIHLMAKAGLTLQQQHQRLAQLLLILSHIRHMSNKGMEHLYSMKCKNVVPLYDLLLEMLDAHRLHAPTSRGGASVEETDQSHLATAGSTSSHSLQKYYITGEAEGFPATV

[5] = molecular target: Gamma-aminobutyric acid receptor subunit alpha-1 (Rattus norvegicus, UniProt P62813); assay type: functional
Gamma-aminobutyric acid receptor subunit alpha-1, sequence (P62813 whole entry): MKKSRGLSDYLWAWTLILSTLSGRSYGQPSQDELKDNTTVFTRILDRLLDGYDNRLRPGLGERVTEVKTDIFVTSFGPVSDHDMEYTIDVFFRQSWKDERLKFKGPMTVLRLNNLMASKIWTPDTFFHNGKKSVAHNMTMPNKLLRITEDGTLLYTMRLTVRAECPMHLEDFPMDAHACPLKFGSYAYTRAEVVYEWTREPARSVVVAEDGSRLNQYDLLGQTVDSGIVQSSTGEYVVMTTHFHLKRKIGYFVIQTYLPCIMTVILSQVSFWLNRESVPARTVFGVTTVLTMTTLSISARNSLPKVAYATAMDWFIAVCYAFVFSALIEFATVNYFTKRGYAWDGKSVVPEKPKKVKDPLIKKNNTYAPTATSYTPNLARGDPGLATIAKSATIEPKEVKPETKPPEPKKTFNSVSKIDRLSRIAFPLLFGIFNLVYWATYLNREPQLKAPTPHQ

[6] = molecular target: Delta-type opioid receptor (Homo sapiens, UniProt P41143)
Delta-type opioid receptor, sequence (P41143 whole entry): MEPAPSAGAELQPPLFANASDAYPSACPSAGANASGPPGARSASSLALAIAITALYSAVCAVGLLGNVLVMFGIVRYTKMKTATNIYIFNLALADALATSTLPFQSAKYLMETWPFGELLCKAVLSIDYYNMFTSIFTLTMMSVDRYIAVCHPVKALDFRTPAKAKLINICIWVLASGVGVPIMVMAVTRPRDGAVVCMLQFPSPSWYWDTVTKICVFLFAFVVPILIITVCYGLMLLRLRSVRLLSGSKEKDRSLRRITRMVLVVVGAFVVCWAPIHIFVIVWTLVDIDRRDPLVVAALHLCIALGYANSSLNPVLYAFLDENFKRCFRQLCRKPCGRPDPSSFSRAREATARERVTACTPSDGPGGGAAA

[7] = molecular target: cGMP-inhibited 3',5'-cyclic phosphodiesterase 3A (Homo sapiens, UniProt Q14432); assay type: functional
cGMP-inhibited 3',5'-cyclic phosphodiesterase 3A, sequence (Q14432 whole entry): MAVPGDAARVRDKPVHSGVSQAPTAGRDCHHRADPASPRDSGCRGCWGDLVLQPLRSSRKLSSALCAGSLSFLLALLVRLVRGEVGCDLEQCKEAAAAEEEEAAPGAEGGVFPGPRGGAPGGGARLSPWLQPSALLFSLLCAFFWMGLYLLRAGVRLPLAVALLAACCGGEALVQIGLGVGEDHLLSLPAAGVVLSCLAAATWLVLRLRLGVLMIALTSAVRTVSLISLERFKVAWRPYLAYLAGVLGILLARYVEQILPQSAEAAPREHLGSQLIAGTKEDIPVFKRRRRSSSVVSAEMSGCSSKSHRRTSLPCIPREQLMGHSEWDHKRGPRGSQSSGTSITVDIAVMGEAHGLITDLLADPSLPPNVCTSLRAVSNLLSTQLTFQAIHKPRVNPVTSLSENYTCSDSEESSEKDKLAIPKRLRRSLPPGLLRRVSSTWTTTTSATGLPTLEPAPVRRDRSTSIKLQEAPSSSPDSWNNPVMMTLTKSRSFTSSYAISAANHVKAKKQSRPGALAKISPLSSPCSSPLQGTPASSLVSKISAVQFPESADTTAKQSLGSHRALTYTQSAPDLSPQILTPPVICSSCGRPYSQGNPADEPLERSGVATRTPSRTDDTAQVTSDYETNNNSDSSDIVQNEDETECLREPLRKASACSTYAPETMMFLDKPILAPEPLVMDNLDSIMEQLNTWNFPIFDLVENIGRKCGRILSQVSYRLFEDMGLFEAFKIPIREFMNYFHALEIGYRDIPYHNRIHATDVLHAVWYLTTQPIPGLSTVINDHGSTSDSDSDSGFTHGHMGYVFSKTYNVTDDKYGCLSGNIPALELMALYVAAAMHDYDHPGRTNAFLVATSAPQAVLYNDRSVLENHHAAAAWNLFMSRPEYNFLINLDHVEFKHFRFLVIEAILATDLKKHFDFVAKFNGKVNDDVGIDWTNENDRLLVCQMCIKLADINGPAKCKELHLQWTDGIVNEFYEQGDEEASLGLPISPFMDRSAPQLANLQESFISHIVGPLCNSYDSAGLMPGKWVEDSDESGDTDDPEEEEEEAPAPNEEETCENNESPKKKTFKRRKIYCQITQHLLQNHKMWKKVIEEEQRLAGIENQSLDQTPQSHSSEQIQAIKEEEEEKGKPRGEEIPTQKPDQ

[8] = molecular target: T4, 5-hydroxytryptamine receptor 2C (Homo sapiens, UniProt P28335)
T4 sequence (P28335 whole entry): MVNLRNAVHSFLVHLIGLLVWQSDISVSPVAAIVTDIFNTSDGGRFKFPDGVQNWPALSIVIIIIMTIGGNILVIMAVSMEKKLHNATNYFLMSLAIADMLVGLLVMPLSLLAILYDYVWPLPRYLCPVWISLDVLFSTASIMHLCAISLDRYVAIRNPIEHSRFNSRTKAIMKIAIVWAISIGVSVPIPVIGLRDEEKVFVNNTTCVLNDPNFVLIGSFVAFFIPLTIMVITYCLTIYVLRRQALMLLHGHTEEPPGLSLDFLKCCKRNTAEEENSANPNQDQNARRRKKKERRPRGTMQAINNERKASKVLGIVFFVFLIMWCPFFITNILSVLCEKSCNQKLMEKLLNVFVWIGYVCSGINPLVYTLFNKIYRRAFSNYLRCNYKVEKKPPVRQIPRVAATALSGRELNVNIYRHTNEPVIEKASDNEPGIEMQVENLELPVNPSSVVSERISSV
Note: assay procedure not described here.

Histamine H3 receptor, sequence (Q9Y5N1 whole entry): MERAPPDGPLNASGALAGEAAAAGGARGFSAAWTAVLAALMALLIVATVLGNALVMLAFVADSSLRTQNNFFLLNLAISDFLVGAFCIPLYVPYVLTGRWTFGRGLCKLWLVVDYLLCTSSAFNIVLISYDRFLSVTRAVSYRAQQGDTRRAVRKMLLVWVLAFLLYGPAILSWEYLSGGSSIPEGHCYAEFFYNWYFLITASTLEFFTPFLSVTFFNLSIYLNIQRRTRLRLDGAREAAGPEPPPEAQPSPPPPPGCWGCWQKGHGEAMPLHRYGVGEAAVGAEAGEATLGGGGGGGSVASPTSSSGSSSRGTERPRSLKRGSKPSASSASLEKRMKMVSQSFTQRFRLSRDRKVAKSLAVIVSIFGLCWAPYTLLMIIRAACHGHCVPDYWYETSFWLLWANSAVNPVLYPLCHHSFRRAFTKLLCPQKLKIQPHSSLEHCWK

| SMILES | AC50 (Histamine H3 receptor) | AC50 [1] | AC50 [2] | AC50 [3] | AC50 (Histamine H1 receptor) | AC50 (Adenosine receptor A2a) | AC50 [4] | AC50 (Melanocortin receptor 3) | AC50 (Estrogen receptor) | AC50 [5] | AC50 [6] | AC50 [7] | AC50 [8] |
| --- | --- | --- | --- | --- | --- | --- | --- | --- | --- | --- | --- | --- | --- |
| CC(C)(C)C(=O)Oc1ccc(S(=O)(=O)Nc2ccccc2C(=O)NCC(=O)O)cc1 | > 30 µM | > 30 µM | > 30 µM | > 30 µM | > 30 µM | > 30 µM | > 30 µM | > 30 µM | > 30 µM | > 30 µM | > 30 µM | > 30 µM | > 30 µM |
| CCC(C(=O)O)c1ccc(N2Cc3ccccc3C2=O)cc1 (centres undefined) [INDOBUFEN] | > 30 µM | > 30 µM | > 30 µM | > 30 µM | > 30 µM | > 30 µM | > 30 µM | > 30 µM | > 30 µM | > 30 µM | > 30 µM | > 30 µM | > 30 µM |
| CCCCCCOc1ccccc1C(N)=O [EXALAMIDE] | > 30 µM | > 30 µM | > 30 µM | > 30 µM | > 30 µM | > 30 µM | > 30 µM | > 30 µM | > 30 µM | > 30 µM | > 30 µM | > 30 µM | > 30 µM |
| Cc1ccc(-n2nccn2)c(C(=O)N2CCN(c3nc4cc(Cl)ccc4o3)CC[C@H]2C)c1 [SUVOREXANT] | > 30 µM | > 30 µM | > 30 µM | > 30 µM | > 30 µM | > 30 µM | 26 µM | > 30 µM | > 30 µM | > 30 µM | > 30 µM | > 30 µM | > 30 µM |
| COc1ccc2c3c1O[C@H]1[C@@H](O)C=C[C@H]4[C@@H](C2)N(C)CC[C@@]341 [CODEINE] | > 10 µM | > 10 µM | > 10 µM | 7.2 µM | > 10 µM | > 30 µM | > 10 µM | > 30 µM | > 30 µM | > 10 µM |  | 3 µM | > 30 µM |
| O=C(O)[C@H](CC(=O)N1C[C@H]2CCCC[C@H]2C1)Cc1ccccc1 [MITIGLINIDE] |  | > 10 µM | > 10 µM | > 30 µM | > 10 µM | > 10 µM | > 10 µM | > 10 µM | > 10 µM | > 10 µM | > 30 µM | > 30 µM | > 30 µM |
| CO[C@@H]1[C@@H](O[C@@H]2O[C@H](C)[C@@H](O[C@H]3C[C@@](C)(O)[C@@H](OC(=O)CC(C)C)[C@H](C)O3)[C@H](N(C)C)[C@H]2O)[C@@H](CC=O)C[C@@H](C)[C@@H](O)/C=C/C=C/C[C@@H](C)OC(=O)C[C@H]1OC(C)=O [JOSAMYCIN] |  | > 10 µM | > 10 µM | > 30 µM | > 10 µM | > 10 µM | > 10 µM | > 10 µM | > 10 µM | > 10 µM | > 30 µM | > 30 µM | > 30 µM |
| COc1ccc2c3c1O[C@H]1C(=O)CC[C@@]4(O)[C@@H](C2)N(C)CC[C@]314 [OXYCODONE] | > 30 µM | > 30 µM | > 30 µM | > 30 µM | > 30 µM | > 30 µM | > 30 µM | > 30 µM | > 30 µM | > 30 µM |  | > 30 µM | > 30 µM |
| Clc1ccc(CCCOCCCN2CCCCC2)cc1 [PITOLISANT] |  | > 30 µM | > 30 µM | > 30 µM | 11 µM | > 30 µM | > 30 µM | > 30 µM | > 30 µM | > 30 µM | > 30 µM | > 30 µM | > 30 µM |
| CC1(C)O[C@@H]2C[C@H]3[C@@H]4CCC5=CC(=O)C=C[C@]5(C)[C@H]4[C@@H](O)C[C@]3(C)[C@]2(C(=O)CO)O1 [DESONIDE] |  | > 10 µM | > 10 µM | > 30 µM | > 10 µM | > 10 µM | > 10 µM | > 10 µM | > 30 µM | > 10 µM | > 30 µM | > 30 µM | > 30 µM |
| COC(=O)[C@H]1[C@H]2C[C@@H]3c4[nH]c5cc(OC)ccc5c4CCN3C[C@H]2C[C@@H](OC(=O)/C=C/c2cc(OC)c(OC)c(OC)c2)[C@@H]1OC [RESCINNAMINE] |  | > 10 µM | > 10 µM | > 30 µM | > 10 µM | > 30 µM | > 10 µM | > 10 µM | > 10 µM | > 10 µM | > 30 µM | > 30 µM | > 30 µM |
| CCc1c(Cl)c(O)c(Cl)c(O)c1C(=O)O[C@H]1[C@H](O)[C@H](OC)[C@H](OC/C2=C\C=C\C[C@H](O)/C(C)=C/[C@H](CC)[C@@H](O[C@@H]3OC(C)(C)[C@@H](OC(=O)C(C)C)[C@H](O)[C@@H]3O)/C(C)=C/C(C)=C/C[C@@H]([C@@H](C)O)OC2=O)O[C@@H]1C [FIDAXOMICIN] | > 10 µM | > 10 µM |  | > 30 µM | > 30 µM | > 30 µM | > 10 µM | > 30 µM | > 30 µM | > 10 µM | > 30 µM | > 30 µM | > 30 µM |
| C[C@H](CSC(=O)c1ccccc1)C(=O)N1C[C@@H](Sc2ccccc2)C[C@H]1C(=O)O [ZOFENOPRIL] |  | > 10 µM | > 10 µM | > 10 µM | > 10 µM | > 10 µM | > 10 µM | > 10 µM | > 10 µM | > 10 µM | > 30 µM | > 30 µM | > 30 µM |
| CC(C)(C)c1cc(C(C)(C)C)c(NC(=O)c2c[nH]c3ccccc3c2=O)cc1O [IVACAFTOR] | > 10 µM | > 10 µM |  | > 30 µM | > 10 µM | > 30 µM | > 10 µM | > 30 µM | > 30 µM | > 10 µM | > 30 µM | > 30 µM | > 30 µM |
| C[C@H](N)[C@H](O)c1cccc(O)c1 [METARAMINOL] |  | > 10 µM | > 10 µM | > 30 µM | > 10 µM | > 10 µM | > 10 µM | > 10 µM | > 10 µM | > 10 µM | > 30 µM | > 30 µM | > 30 µM |
